# Results published in US9226897B2, “Self-assembling nanoparticles for the release of bisphosphonates in the treatment of human cancers” (Istituti Fisioterapici Ospitalieri, priority 2010, dated 2016).
# Assays:
# PC3 = experiment: MTT proliferation assay, PC3 prostate cancer cells; format: cell-based; conditions: Homo sapiens, PC-3, 72 h, read-out: IC50 (50% inhibitory concentration), growth inhibition
# Protocol: (§1) Human melanoma cells (M14) and doxorubicin resistant cells (M14+) were provided by Prof. G. Arancia form the National Institute of Health of Rome. […] Proliferation of human cancer cell lines was performed in the presence of increasing concentrations of different drugs by MTT assay as previously described by Caraglia et al. (Oncogene 2004).
# (§2) It was studied the effect of increasing concentrations of ZOL encapsulated in pre- and post-PLCaP NPs on growth inhibition of different human cancer cell lines, by MTT assay. In Table 2, the IC50 (50% inhibitory concentration) values of ZOL, free or encapsulated in pre- or post-PLCaP NPs, in the different cell lines analysed after 72 h, are reported. […] Moreover, when using ZOL-encapsulating NPs, we found a potentiation factor (PF)>1.0 in all tested cell lines, if compared with the free ZOL. […] In particular, on MCF7, pre-PLCaPZ NPs caused an about 12-fold potentiation of ZOL-induced cytotoxicity, while a lower effect (about 8-fold) was found with post-PLCaP NPs.
# DU145 = experiment: MTT proliferation assay, DU145 prostate cancer cells; format: cell-based; conditions: Homo sapiens, DU-145, 72 h, read-out: IC50 (50% inhibitory concentration), growth inhibition
# Protocol: as §1, §2
# MCF7 = experiment: MTT proliferation assay, MCF7 breast cancer cells; format: cell-based; conditions: Homo sapiens, 72 h, read-out: IC50 (50% inhibitory concentration), growth inhibition
# Protocol: as §1, §2
# MDA-MB468 = experiment: MTT proliferation assay, MDA-MB468 breast cancer cells; format: cell-based; conditions: Homo sapiens, MDA-MB-468, 72 h, read-out: IC50 (50% inhibitory concentration), growth inhibition
# Protocol: as §1, §2
# CG5 = experiment: MTT proliferation assay, CG5 breast cancer cells; format: cell-based; conditions: Homo sapiens, 72 h, read-out: IC50 (50% inhibitory concentration), growth inhibition
# Protocol: as §1, §2
# KB = experiment: MTT proliferation assay, KB head/neck cancer cells; format: cell-based; conditions: Homo sapiens, 72 h, read-out: IC50 (50% inhibitory concentration), growth inhibition
# Protocol: as §1, §2
# H1355 = experiment: MTT proliferation assay, H1355 lung cancer cells; format: cell-based; conditions: Homo sapiens, NCI-H1355, 72 h, read-out: IC50 (50% inhibitory concentration), growth inhibition
# Protocol: as §1, §2
# Panc = experiment: MTT proliferation assay, Panc pancreas cancer cells; format: cell-based; conditions: Homo sapiens, 72 h, read-out: IC50 (50% inhibitory concentration), growth inhibition
# Protocol: as §1, §2
# BX-PC3 = experiment: MTT proliferation assay, BX-PC3 pancreas cancer cells; format: cell-based; conditions: Homo sapiens, BXPC-3, 72 h, read-out: IC50 (50% inhibitory concentration), growth inhibition
# Protocol: as §1, §2
# MIA PaCa = experiment: MTT proliferation assay, MIA PaCa pancreas cancer cells; format: cell-based; conditions: Homo sapiens, MIA PaCa-2, 72 h, read-out: IC50 (50% inhibitory concentration), growth inhibition
# Protocol: as §1, §2
# RPMI = experiment: MTT proliferation assay, RPMI multiple myeloma cells; format: cell-based; conditions: Homo sapiens, Multiple myeloma cell, 72 h, read-out: IC50 (50% inhibitory concentration), growth inhibition
# Protocol: as §1, §2
# DOX = experiment: MTT proliferation assay, DOX multiple myeloma cells; format: cell-based; conditions: Homo sapiens, Multiple myeloma cell, 72 h, read-out: IC50 (50% inhibitory concentration), growth inhibition
# Protocol: as §1, §2
# KMS = experiment: MTT proliferation assay, KMS multiple myeloma cells; format: cell-based; conditions: Homo sapiens, Multiple myeloma cell, 72 h, read-out: IC50 (50% inhibitory concentration), growth inhibition
# Protocol: as §1, §2
# OPM2 = experiment: MTT proliferation assay, OPM2 multiple myeloma cells; format: cell-based; conditions: Homo sapiens, OPM-2, 72 h, read-out: IC50 (50% inhibitory concentration), growth inhibition
# Protocol: as §1, §2
# PC-3 cells = experiment: In vivo antitumoral activity on prostate cancer, PC-3 xenograft in nude mice; parameters: species or system CD-1 nude (nu/nu) mice; conditions: PC-3 tumors in nude mice, 20 μg ZOL i.v. three times a week for three weeks
# Protocol: CD-1 nude (nu/nu) mice, 6-8 weeks old were purchased from Charles River Laboratories (Milano, Italy).
# Mice have been acclimated for one week before to be injected with tumor cells. Mice were injected intramuscularly with tumor cells at 3×10^6 cells/mouse in 200 μl of PBS. Six days after, a tumor mass of about 0.3 cm^3 in diameter was evident, mice were randomized in four groups. Six mice/group were treated with ZOL free or NP containing ZOL for 3 consecutive weeks. Tumor mass was calculated three times a week from caliper measurements by using the formula π/6 AB, where A is the major diameter and B is the minor diameter, corresponding to tumor mass (Sommer K. et al. International Journal of Oncology 2001). Toxicity was evaluating by measuring the body weight two times a week. Student's t test was used for statistical comparison of differences.
# As control, a group of mice was treated with NP not containing ZOL, to evaluate the potential antitumoral effects. Mice were treated three times a week for three consecutive weeks. Antitumor efficacy of treatments was assessed by the following end-points: a) percent tumor weight inhibition (TWI %), calculated as [1-(mean tumor weight of treated mice/mean tumor weight of controls)]×100; b) tumor growth delay, evaluated as T−C, where T and C are the median times for treated (T) and untreated tumors (C), respectively, to achieve equivalent size.
# [1] = cited from earlier work
# [2] = ZOL 4 mg intravenous over 15 min
smiles,measurement,setting,value
"O=P(O)(O)C(O)(Cn1ccnc1)P(=O)(O)O [free ZOL, zoledronic acid]",IC50,PC3,12.5 µM
same,IC50,DU145,25 µM
same,IC50,MCF7,120 µM
same,IC50,MDA-MB468,28.4 µM
same,IC50,CG5,74 µM
same,IC50,KB,22.8 µM
same,IC50,H1355,65 µM
same,IC50,Panc,32 µM
same,IC50,BX-PC3,12.3 µM
same,IC50,MIA PaCa,55 µM
same,IC50,RPMI,120 µM
same,IC50,DOX,41.9 µM
same,IC50,KMS,30 µM
same,IC50,OPM2,83 µM
same,"TWI (%), percent tumor weight inhibition",PC-3 cells; at the nadir of the effect,17%
same,"T-C (days), tumor growth delay",PC-3 cells; median times to equivalent size,5 days
same,distribution plasma half-life (t1/2),[1]; [2],0.25 h
same,elimination plasma half-life (t1/2β),[1]; [2],1.75 h
same,Cmax,"[1]; ZOL 4 mg intravenous over 15 min, read-out: maximum plasma concentration (Cmax)",~1000 nM
same,initially administered dose retained in the skeleton,[1]; in vivo,approximately 55%
